# Reference: ChEMBL document CHEMBL1201862, “PubChem BioAssay data set” (2004)
# “And” between values parts separate entries of the source, which are not always exact repeats. Identical values can stand only once. The source made the active and inactive calls.
# How the values were obtained:
# [1] = biological target: T1, Carboxy-terminal domain RNA polymerase II polypeptide A small phosphatase 1 (Homo sapiens, UniProt Q9GZU7); test: CTDSP1 inhibitors, concentration-response, biochemical, absorbance readout, ultra-high-throughput screen actives (AID 540297); format: functional
# T1 sequence (Q9GZU7 whole entry): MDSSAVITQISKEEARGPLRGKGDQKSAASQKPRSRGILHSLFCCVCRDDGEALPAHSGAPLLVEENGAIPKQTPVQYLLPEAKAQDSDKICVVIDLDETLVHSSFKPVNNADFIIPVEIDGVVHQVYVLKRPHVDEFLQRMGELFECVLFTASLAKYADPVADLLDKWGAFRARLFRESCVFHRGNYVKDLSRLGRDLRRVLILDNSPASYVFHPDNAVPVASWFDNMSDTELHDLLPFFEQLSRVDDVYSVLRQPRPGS
# [2] = biological target: T2, Cytochrome P450 3A4 (Homo sapiens, UniProt P08684); conditions: Potency
# [3] = P. falciparum Dd2 growth inhibitors, dose response, SYBR Green, cherry-picked samples (AID 1159567); format: functional, cell-based
# [4] = Trypanosoma cruzi growth suppression in host cells – NIH3T3 host cells, beta-gal luminescence, confirmation (AID 2044); format: functional, cell-based;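 also: intracellular parasites grown in NIH/3T3 mouse fibroblasts as host cells; luminescent beta-galactosidase reporter signal from transgenic T. cruzi replicating inside host cells; inhibitors lower the luminescence signal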
# [5] = NIH3T3 cell viability loss – ATP luminescence, mouse fibroblasts, counter-screen, dose response (AID 2010); format: functional, cell-based;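 also: cells exposed to compound for about 90 hours before reading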
# [6] = biological target: T2, Cytochrome P450 3A4
# [7] = viability loss in THP-1 monocytes – THP-1 cells, cytotoxicity control for Vif-APOBEC3G degradation inhibitor project, dose response (AID 1117359); format: functional; conditions: THP-1
# [8] = microbe, parasite or virus in culture; format: functional; conditions: Mycobacterium tuberculosis
# [9] = Luminescence Cell-Based Dose Retest to Confirm Inhibitors of Cancer Stem Cells. [Related pubchem assays (depositor defined):AID2717, AID2721]; format: functional; conditions: Homo sapiens
# [10] = biological target: Heat shock protein HSP 90-alpha (Homo sapiens, UniProt P07900); format: functional, organism-based
# [11] = system: INS1; test: INS-1E survival protection against cytokine death – cell-based, luminescence, retest, dose response (AID 449756); format: functional; conditions: Rattus norvegicus;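 also: cell death triggered by IL-1 beta plus TNF-alpha plus IFN-gamma mixture; protective hits raise ATP signal compared with cytokine alone wells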
# [12] = reduction of Shn3 3'UTR-driven luciferase in osteoblasts – cell-based, Clone20 osteoblasts, firefly luciferase, cherry-picked, dose response (AID 624132); format: functional;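 also: firefly luciferase luminescence from reporter carrying the Shn3 3'UTR in osteoblasts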
# [13] = loss of viability in HepG2 cells – cell-based, CellTiter-Glo, cherry-picked, cytotoxicity control for Shn3 inhibitor project, dose response (AID 624134); format: functional
# [14] = biological target: T3, Ubiquitin-conjugating enzyme E2 N (Homo sapiens, UniProt P61088); format: functional;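 also: Dose-response confirmation in a TR-FRET assay detecting UBC13-driven polyubiquitin chain formation, inhibition measured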
# T3 sequence (P61088 whole entry): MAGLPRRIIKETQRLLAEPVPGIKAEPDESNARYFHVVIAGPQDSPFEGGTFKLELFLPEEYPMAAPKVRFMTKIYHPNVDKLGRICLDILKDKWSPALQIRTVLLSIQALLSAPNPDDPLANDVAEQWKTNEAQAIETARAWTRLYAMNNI
# [15] = biological target: T4, High affinity choline transporter 1 (Homo sapiens, UniProt Q9GZV3); test: human choline transporter blockers, potency – cell-based, 5-point CRC, membrane potential dye, dose response (AID 504840); format: functional
# T4 sequence (Q9GZV3 whole entry): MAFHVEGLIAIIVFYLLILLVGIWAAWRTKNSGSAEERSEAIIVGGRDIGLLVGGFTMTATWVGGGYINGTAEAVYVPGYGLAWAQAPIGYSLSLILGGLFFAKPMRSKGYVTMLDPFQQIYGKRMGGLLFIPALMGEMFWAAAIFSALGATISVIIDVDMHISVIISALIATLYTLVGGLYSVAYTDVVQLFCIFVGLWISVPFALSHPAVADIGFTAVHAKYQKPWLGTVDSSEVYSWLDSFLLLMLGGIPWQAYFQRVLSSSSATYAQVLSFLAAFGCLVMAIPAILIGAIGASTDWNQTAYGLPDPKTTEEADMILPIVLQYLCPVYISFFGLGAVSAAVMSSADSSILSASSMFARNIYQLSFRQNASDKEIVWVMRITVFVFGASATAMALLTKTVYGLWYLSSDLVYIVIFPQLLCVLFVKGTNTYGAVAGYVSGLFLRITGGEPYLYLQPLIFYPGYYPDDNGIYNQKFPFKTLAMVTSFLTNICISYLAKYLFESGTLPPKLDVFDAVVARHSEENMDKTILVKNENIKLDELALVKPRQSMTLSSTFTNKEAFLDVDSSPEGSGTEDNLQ
# [16] = biological target: T5, Calpain-2 catalytic subunit (Sus scrofa, UniProt P43367); test: m-calpain protease blockers, concentration series – biochemical, fluorogenic peptide substrate, dose response (AID 1420); format: functional
# T5 sequence (P43367 whole entry): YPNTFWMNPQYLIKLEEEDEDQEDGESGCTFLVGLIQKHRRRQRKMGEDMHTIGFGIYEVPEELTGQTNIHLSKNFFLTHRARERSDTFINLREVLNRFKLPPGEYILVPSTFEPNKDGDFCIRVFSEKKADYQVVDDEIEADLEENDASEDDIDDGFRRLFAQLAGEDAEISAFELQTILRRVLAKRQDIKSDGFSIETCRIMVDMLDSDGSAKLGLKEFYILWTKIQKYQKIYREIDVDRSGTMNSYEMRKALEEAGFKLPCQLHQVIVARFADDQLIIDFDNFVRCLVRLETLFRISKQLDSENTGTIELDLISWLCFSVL
# [17] = biological target: T6, Corticotropin-releasing factor receptor 2/Corticotropin-releasing factor-binding protein (Homo sapiens, UniProt P24387+Q13324); test: activators of CRF receptor 2 with binding protein – uHTS hits, confirmation (AID 602473); format: functional; conditions: read-out: EC50_Mean
# T6 sequence (Q13324 whole entry): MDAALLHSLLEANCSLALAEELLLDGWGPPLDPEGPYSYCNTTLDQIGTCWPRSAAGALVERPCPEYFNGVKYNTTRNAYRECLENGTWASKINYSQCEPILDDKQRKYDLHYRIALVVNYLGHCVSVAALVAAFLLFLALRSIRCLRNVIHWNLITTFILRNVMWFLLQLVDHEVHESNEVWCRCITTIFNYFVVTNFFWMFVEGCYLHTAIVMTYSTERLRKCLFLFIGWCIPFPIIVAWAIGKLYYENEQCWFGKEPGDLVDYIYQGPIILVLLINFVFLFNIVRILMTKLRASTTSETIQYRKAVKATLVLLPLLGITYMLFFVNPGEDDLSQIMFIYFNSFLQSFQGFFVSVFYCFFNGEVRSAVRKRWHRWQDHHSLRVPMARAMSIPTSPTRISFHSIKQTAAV
# T6 sequence (P24387 whole entry): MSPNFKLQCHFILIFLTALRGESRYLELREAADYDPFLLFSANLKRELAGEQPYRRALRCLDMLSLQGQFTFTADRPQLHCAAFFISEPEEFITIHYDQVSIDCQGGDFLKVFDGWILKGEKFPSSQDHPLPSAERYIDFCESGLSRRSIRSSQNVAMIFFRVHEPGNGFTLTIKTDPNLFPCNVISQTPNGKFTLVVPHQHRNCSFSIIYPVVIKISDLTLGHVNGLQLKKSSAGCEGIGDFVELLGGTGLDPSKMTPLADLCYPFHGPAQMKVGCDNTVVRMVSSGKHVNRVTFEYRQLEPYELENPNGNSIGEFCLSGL
# [18] = luciferase reporter signal suppression in cells – H4 neuroglioma cells, luminescence, dose response (AID 1990); format: functional, cell-based
# [19] = Luminescence Cell-Based Dose Response HTS to Identify Inhibitors of 5'UTR Stem-Loop Driven Prion Protein mRNA Translation in H4 Neuroglioblastoma Cells. [Related pubchem assays: 1827 (Project Summary), 1813 (Primary HTS)]; format: functional
# [20] = alpha-synuclein stem-loop luciferase translation blockers – H4 neuroglioma cells, luminescence, confirmation (AID 1988); format: functional, cell-based
# T2 sequence (P08684 whole entry): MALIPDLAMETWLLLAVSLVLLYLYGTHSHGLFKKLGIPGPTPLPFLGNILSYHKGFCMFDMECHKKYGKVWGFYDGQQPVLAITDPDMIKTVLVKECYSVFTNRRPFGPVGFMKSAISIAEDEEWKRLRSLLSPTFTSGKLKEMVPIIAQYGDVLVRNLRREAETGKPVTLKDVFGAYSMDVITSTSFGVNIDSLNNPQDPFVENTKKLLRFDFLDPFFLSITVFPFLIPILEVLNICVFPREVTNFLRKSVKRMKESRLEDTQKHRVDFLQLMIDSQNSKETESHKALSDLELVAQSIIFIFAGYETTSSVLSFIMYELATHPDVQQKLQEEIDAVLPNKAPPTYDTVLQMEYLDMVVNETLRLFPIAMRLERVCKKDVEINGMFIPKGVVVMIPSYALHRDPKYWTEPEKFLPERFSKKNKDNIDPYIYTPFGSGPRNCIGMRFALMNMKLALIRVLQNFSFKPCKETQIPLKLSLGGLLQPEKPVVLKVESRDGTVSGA
smiles,measurement,setting,value
CC(=O)OCC1=C(C(=O)O)N2C(=O)[C@@H](NC(=O)Cc3cccs3)[C@H]2SC1 [CEPHALOTHIN],IC50,[1],2.79 µM (active)
COC(=O)C1=C(C)N(Cc2ccccc2)c2c(C(=O)OC)c(C(=O)OC)c(C(=O)OC)c(=O)n2C1c1ccccc1 (stereo unspecified),AC50,[2],5.01 µM (inconclusive) and 3.98 µM (inconclusive)
CCCNC[C@H]1[C@@H](c2ccc(C3=CCCCC3)cc2)[C@@H](CO)N1C(=O)C1CCC1,AC50,[3],4.2 µM (active)
N#Cc1c(N2CCN(C(=O)c3ccccc3Cl)CC2)nc(-c2ccccc2)c2c1CCCC2,EC50,[4],2.36 µM (active)
same,EC50,[5],> 60 µM (not active)
same,AC50,[6],inconclusive
COc1ccc(-c2cc(C(=O)N(C)CC(=O)Nc3ccccc3Br)c3ccccc3n2)cc1OC,CC50,[7],> 40 µM (active)
Clc1ccc(C(Cn2ccnc2)OCc2csc3c(Cl)cccc23)c(Cl)c1 (stereo unspecified) [SERTACONAZOLE NITRATE],CC50,[8],24.4 µM (active)
same,AC50,[9],1.85 µM (active)
same,AC50,[10],0.233 µM (active)
same,AC50,[11],10 µM (active)
CC(C)N1CCN(c2ccc(OCC3COC(Cn4cncn4)(c4ccc(Cl)cc4Cl)O3)cc2)CC1 (stereo unspecified) [TERCONAZOLE],AC50,[10],2.19 µM (active)
same,AC50,[12],52.1 µM (active)
same,AC50,[13],21.2 µM (active)
CCN(CC)CCNC(C(=O)Nc1cc(C(F)(F)F)ccc1Cl)c1ccccc1 (stereo unspecified),IC50,[1],9.32 µM (active)
CCOC(=O)c1c(CN2CCCCC2)oc2ccc(O)cc12,IC50,[14],> 20 µM (inactive)
Cc1ccc2nsnc2c1S(=O)(=O)N1CCN(CCc2ccccc2)CC1,IC50,[15],11.8 µM (active)
Cc1cc2nc(C)c(Cl)c(O)n2n1,IC50,[15],13.2 µM (active)
COc1ccc(C#Cc2ccc([C@H]3[C@H]4CN(C(=O)Nc5ccccc5)CCCCN4[C@H]3CO)cc2)cc1,AC50,[3],4.8 µM (active)
O=C(CCCCCCCCC(=O)N/N=C/c1ccco1)N/N=C/c1ccco1,IC50,[1],11.5 µM (active)
CC(SCc1ccccc1)C(=O)N/N=C/c1ccc(OCC(=O)NCc2ccco2)cc1 (stereo unspecified),IC50,[15],2 µM (active)
CC(=O)OC1CC(OC(C)=O)[C@]2(C)C(CC(=O)[C@]3(C)C2CC[C@@]2(C)C(C(=O)O)OC(=O)C4OC423)C1(C)C (stereo partly specified),AC50,[2],39.8 µM (inconclusive)
CCCC(=O)Nc1ccc2c(c1)OC[C@H](C)N(Cc1ccc(-c3ccccn3)cc1)C[C@H](C)[C@H](OC)CN(C)C2=O,AC50,[3],4.66 µM (active)
COc1ccc(OCC(=O)OCCN(C)C)cc1,IC50,[15],14.5 µM (active)
O=C1CC[C@@]23/C=C/C(=O)NCCCCNCCCNC(=O)/C=C/c4ccc(c2c4)OC3C1 (stereo partly specified),AC50,[2],39.8 µM (inconclusive)
COc1ccc2c3c([nH]c2c1)[C@@H](CO)N(Cc1cc(F)ccc1F)CC31CCN(C(=O)C2CCC2)CC1,AC50,[3],3.77 µM (active)
CCCCCCN(C(=O)CCCCCN1C(=O)NC(c2ccc(C(C)(C)C)cc2)C(C(=O)OCc2ccccc2)=C1C)C(C(=O)NCCCC)c1ccc(OCC(=O)OC)c(C(=O)OC)c1 (stereo unspecified),CC50,[7],13.2 µM (active)
CCc1ccc(C(=O)Nc2cccnc2Oc2ccc(Cl)cc2)cc1,CC50,[7],18.4 µM (active)
O=C1COc2ccc(C(=O)COC(=O)/C=C/c3ccco3)cc2N1,IC50,[1],13.4 µM (active)
Cc1nc(Nc2ccccc2)c2nc(-c3ccccc3)n(CCCN3CCCCC3C)c2n1 (stereo unspecified),AC50,[2],12.6 µM (inconclusive)
O=C(c1nc2ccc(Cl)cn2c1CN1CCCC1)N1CCc2ccccc2C1,IC50,[1],17.5 µM (active)
O=NN(O)c1ccccc1,AC50,[2],31.6 µM (inconclusive)
COc1ccc(-c2coc3ccc(OC4OC(COC(C)=O)C(OC(C)=O)C(OC(C)=O)C4OC(C)=O)cc3c2=O)cc1 (stereo unspecified),AC50,[2],1.58 µM (inconclusive)
O=C(COc1ccc([N+](=O)[O-])cc1)Nc1ccc(C(=O)Nc2ccccc2C(=O)O)cc1,IC50,[1],12.3 µM (active)
O=C(Nc1ccc(Oc2ccccc2)cc1)C1CCCN(c2ncccn2)C1 (stereo unspecified),IC50,[16],14.7 µM (not active)
same,EC50,[17],> 53 µM (inactive)
Cn1c(NCc2ccccc2)nc2c1c(=O)n(Cc1ccc(Br)cc1)c(=O)n2C,EC50,[18],13.5 µM (active)
same,EC50,[19],18 µM (active)
same,EC50,[20],12.4 µM (active)
same,IC50,[16],5.48 µM (active)
CCCCNc1nc(C)nc2c1nc(C)n2CCC,AC50,[2],31.6 µM (inconclusive)
O=C1C2C3C=CC(CNS(=O)(=O)c4ccccc4)(O3)C2C(=O)N1c1ccc(Cl)cc1 (stereo unspecified),AC50,[10],7.09 µM (active)
CCCN(CCC)CCNC(=O)c1cc2c(=O)n(CC)c3ccccc3c2s1,IC50,[14],> 20 µM (inactive)
COc1ccc2c3c([nH]c2c1)[C@H](CO)N(Cc1ccccc1Cl)CC31CCN(C(C)=O)CC1,AC50,[3],2.8 µM (active)
Cc1cccc(OCCCC(=O)NNC(=O)c2ccccn2)c1,IC50,[14],> 20 µM (inactive)
COC(=O)C1(C)C=CC2(CCCCC2)N1C(C)=O (stereo unspecified),AC50,[2],15.8 µM (inconclusive)
